Like-named read-outs stand apart in the source and are kept apart here.
Biological target: ENPP-1 ECD (Homo sapiens (Human), UniProt P22413)
Assay: Inhibition of ENPP1 hydrolysis of 2′,3′-cGAMP (Assay 1)
Details: AMP-Glo luminescence, KI from IC50 via Cheng/Prusoff
[1] = Assay 1 KI values (class), 2,3-cGAMP 24 μM
[2] = read-out: Assay 1 KI, 2,3-cGAMP 24 μM
[3] = read-out: Assay 1 KI values (class), 2,3-cGAMP 24 μM

Sequence of ENPP-1 ECD (P22413 98-925): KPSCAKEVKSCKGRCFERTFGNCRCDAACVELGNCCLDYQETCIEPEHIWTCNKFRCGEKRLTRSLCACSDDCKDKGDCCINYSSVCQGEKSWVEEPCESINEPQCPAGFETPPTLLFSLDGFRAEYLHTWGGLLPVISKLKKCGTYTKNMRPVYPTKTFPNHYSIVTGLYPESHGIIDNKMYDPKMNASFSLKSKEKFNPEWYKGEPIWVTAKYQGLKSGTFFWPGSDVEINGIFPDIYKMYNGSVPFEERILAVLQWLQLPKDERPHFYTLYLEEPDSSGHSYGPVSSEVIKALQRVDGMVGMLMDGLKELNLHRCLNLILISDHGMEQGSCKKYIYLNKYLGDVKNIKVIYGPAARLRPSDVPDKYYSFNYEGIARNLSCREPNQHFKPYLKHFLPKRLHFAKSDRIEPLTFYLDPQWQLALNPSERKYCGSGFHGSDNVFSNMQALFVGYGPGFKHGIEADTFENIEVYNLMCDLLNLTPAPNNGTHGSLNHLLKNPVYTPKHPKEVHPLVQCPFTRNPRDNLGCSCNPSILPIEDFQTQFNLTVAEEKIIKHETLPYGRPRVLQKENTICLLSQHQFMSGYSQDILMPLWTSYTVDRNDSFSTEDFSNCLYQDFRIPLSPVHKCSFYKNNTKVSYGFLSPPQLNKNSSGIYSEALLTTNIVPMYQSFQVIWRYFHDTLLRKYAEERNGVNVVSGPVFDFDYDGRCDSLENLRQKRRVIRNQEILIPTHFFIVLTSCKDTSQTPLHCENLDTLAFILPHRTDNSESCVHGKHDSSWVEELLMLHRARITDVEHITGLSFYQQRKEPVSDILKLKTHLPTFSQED
Description: Test compounds were plated in a 3× dilution scheme in a 384 well plate.

Ki [1] [nM]	Ki [2] [nM]	Ki [3] [nM]	Ki (Assay 1 KI, 2,3-cGAMP 24 μM) [nM]	Compound
–	13.4	3 to 300	–	Cc1nc2ncnn2c(N(C)C)c1Cc1ccc([S@](C)(=N)=O)cc1 (single isomer, unassigned) [Compound 1a]
–	42.2	3 to 300	–	Cc1nc2nccn2c(N(C)C)c1Cc1ccc([S@@](C)(=N)=O)cc1 [Compound 29b]
–	0.356	< 3	–	Cc1nc2ncnn2c(N(C)C)c1Cc1ccc([S@](C)(=N)=O)cc1 (single isomer, unassigned) [Compound 49b]
–	10	3 to 300	–	Cc1cc2ncnn2c(N(C)C)c1Cc1ccc([S@@](C)(=N)=O)cc1 (single isomer, unassigned) [Compound 28b]
–	13.4	3 to 300	–	Cc1nc2ncnn2c(N2CCCC2)c1Cc1ccc([S@@](C)(=N)=O)cc1 (single isomer, unassigned) [Compound 8b]
–	0.982	–	–	Cc1nc2ncnn2c(N(C)C)c1Cc1ccc([S@](=N)(=O)CCC(=O)O)cc1 [Compound 72b]
–	3.17	3 to 300	–	Cc1nc2ncnn2c(N2CCCCC2)c1Cc1ccc([S@@](C)(=N)=O)cc1 [Compound 16b]
–	11.1	–	–	Cc1c(Cc2ccc([S@](C)(=N)=O)cc2)c(N(C)C)n2ncnc2c1C#N (single isomer, unassigned) [Compound 85b]
–	> 15	–	–	COc1nc2ncnn2c(N(C)C)c1Cc1ccc([S@](C)(=N)=O)cc1 [Compound 88b]
–	9.97	3 to 300	–	CN(C)c1c(Cc2ccc([S@](C)(=N)=O)cc2)c(Cl)nc2ncnn12 [Compound 74b]
–	43	3 to 300	–	Cc1c(Cc2ccc([S@](C)(=N)=O)cc2)c(N(C)C)n2ccnc2c1C#N [Compound 80b]

The next lines start with the compound.

Compound	Ki [1] [nM]	Ki [2] [nM]	Ki [3] [nM]	Ki (Assay 1 KI, 2,3-cGAMP 24 μM) [nM]
Cc1nc2ncnn2c(N2CC(C)(C)C2)c1Cc1ccc(S(C)(=N)=O)cc1 (stereo not shown) [Compound 42, (4-{[7-(3,3-dimethylazetidin-1-yl)-5-methyl-[1,2,4]triazolo[1,5-a]pyrimidin-6-yl]methyl}phenyl)(imino)methyl-λ^6-sulfanone]	3 to 300	–	–	–
Cc1nc2ncnn2c(N2C3CCC2CC3)c1Cc1ccc(S(C)(=N)=O)cc1 (stereo not shown) [Compound 44, {4-[(7-{7-azabicyclo[2.2.1]heptan-7-yl}-5-methyl-[1,2,4]triazolo[1,5-a]pyrimidin-6-yl)methyl]phenyl}(imino)methyl-λ^6-sulfanone]	3 to 300	–	–	–
Cc1nc2ncnn2c(N2CC3CC3C2)c1Cc1ccc(S(C)(=N)=O)cc1 (stereo not shown) [Compound 48, {4-[(7-{3-azabicyclo[3.1.0]heptan-3-yl}-5-methyl-[1,2,4]triazolo[1,5-a]pyrimidin-6-yl)methyl]phenyl}(imino)methyl-λ^6-sulfanone]	< 3	2.65	–	–
Cc1nc2ncnn2c(C)c1Cc1ccc(S(C)(=N)=O)cc1 (stereo not shown) [Compound 26, [4-({5,7-dimethyl-[1,2,4]triazolo[1,5-a]pyrimidin-6-yl}methyl)phenyl](imino)methyl-λ6-sulfanone]	3 to 300	13.6	–	–
Cc1nc2nccn2c(N2CCCCC2)c1Cc1ccc(S(C)(=N)=O)cc1 (stereo not shown) [Compound 83, Imino(methyl)(4-{[7-methyl-5-(piperidin-1-yl)imidazo[1,2-a]pyrimidin-6-yl]methyl}phenyl)-λ^6-sulfanone]	< 3	0.0978	–	–
Cc1nc2ncnn2c(N(C)C)c1Cc1ccc(S(=N)(=O)C2CC2)cc1 (stereo not shown) [Compound 63, [cyclopropyl(4-{[7-(dimethylamino)-5-methyl-[1,2,4]triazolo[1,5-a]pyrimidin-6-yl]methyl}phenyl)imino-λ^6-sulfanyl]one]	< 3	0.0363	–	–
Cc1nc2ncnn2c(N(C)C)c1-c1ccc2c(c1)CCN(S(N)(=O)=O)C2 [Compound 84, 6-[7-(dimethylamino)-5-methyl-[1,2,4]triazolo[1,5-a]pyrimidin-6-yl]-1,2,3,4-tetrahydroisoquinoline-2-sulfonamide]	> 300	672	–	–
Cc1nc2ncnn2c(N(C)C)c1CC1CCN(S(N)(=O)=O)CC1 [Compound 15, 4-{[7-(dimethylamino)-5-methyl-[1,2,4]triazolo[1,5-a]pyrimidin-6-yl]methyl}piperidine-1-sulfonamide]	3 to 300	495	–	–
Cc1nc2ncnn2c(N2C3CCCC2CC3)c1Cc1ccc(S(C)(=N)=O)cc1 (stereo not shown) [Compound 47]	3 to 300	50.9	–	–
Cc1nc2ncnn2c(N2CC(F)(F)C2)c1Cc1ccc(S(C)(=N)=O)cc1 (stereo not shown) [Compound 41]	3 to 300	10.8	–	–
Cc1nc2ncnn2c(N(C)C)c1-c1ccc2c(c1)CN(S(N)(=O)=O)CC2 [Compound 69, 7-[7-(dimethylamino)-5-methyl-[1,2,4]triazolo[1,5-a]pyrimidin-6-yl]-1,2,3,4-tetrahydroisoquinoline-2-sulfonamide]	3 to 300	122	–	–
CS(=N)(=O)c1ccc(Cc2c(C(F)(F)F)nc3ncnn3c2N2CCCCC2)cc1 (stereo not shown) [Compound 52]	3 to 300	4.85	–	–
CS(=N)(=O)Cc1ccc(-c2cnc3ncnn3c2)cc1 (stereo not shown) [Compound 66, imino(methyl)[(4-{[1,2,4]triazolo[1,5-a]pyrimidin-6-yl}phenyl)methyl]-λ^6-sulfanone]	> 300	> 1500	–	–
Cc1nc2ncnn2c(N(C)C)c1Cc1cccc(NS(N)(=O)=O)c1 [Compound 3, N-(3-{[7-(dimethylamino)-5-methyl-[1,2,4]triazolo[1,5-a]pyrimidin-6-yl]methyl}phenyl)aminosulfonamide]	3 to 300	–	–	222
Cc1nc2ncnn2c(N(C)C)c1Cc1cccc(S(C)(=N)=O)c1 (stereo not shown) [Compound 4, (3-((7-(dimethylamino)-5-methyl-[1,2,4]triazolo[1,5-a]pyrimidin-6-yl)methyl)phenyl)(imino)(methyl)-λ^6-sulfanone]	> 300	537	–	–
Cc1nc2ncnn2cc1Cc1ccc(S(C)(=N)=O)cc1 (stereo not shown) [Compound 70, imino(methyl)[4-({5-methyl-[1,2,4]triazolo[1,5-a]pyrimidin-6-yl}methyl)phenyl]-λ6-sulfanone]	3 to 300	179	–	–
Cc1nc2ncnn2c(C2CC2)c1Cc1ccc(S(C)(=N)=O)cc1 (stereo not shown) [Compound 71, [4-({7-cyclopropyl-5-methyl-[1,2,4]triazolo[1,5-a]pyrimidin-6-yl}methyl)phenyl](imino)methyl-λ6-sulfanone]	3 to 300	–	–	–
Cc1nc2ncnn2c(N(C)C)c1Cc1cccc(S(N)(=O)=O)c1 [Compound 65, 3-{[7-(dimethylamino)-5-methyl-[1,2,4]triazolo[1,5-a]pyrimidin-6-yl]methyl}benzene-1-sulfonamide]	3 to 300	181	–	–
Cc1nc2ncnn2c(N(C)C2CCC2)c1Cc1ccc(S(C)(=N)=O)cc1 (stereo not shown) [Compound 40]	3 to 300	27	–	–
Cc1nc2ncnn2c(N(C)C2CC2)c1Cc1ccc(S(C)(=N)=O)cc1 (stereo not shown) [Compound 39, [4-({7-[cyclopropyl(methyl)amino]-5-methyl-[1,2,4]triazolo[1,5-a]pyrimidin-6-yl}methyl)phenyl](imino)methyl-λ^6-sulfanone]	3 to 300	–	–	–
CCN(CC)c1c(Cc2ccc(S(C)(=N)=O)cc2)c(C)nc2ncnn12 (stereo not shown) [Compound 38]	3 to 300	37.9	–	–
CN(C)c1c(Cc2ccc(S(C)(=N)=O)cc2)c(C(F)(F)F)nc2ncnn12 (stereo not shown) [Compound 51]	3 to 300	5.56	–	–
Cc1nc2ncnn2c(N(C)C)c1-c1ccc(CCS(C)(=N)=O)cc1 (stereo not shown) [Compound 68, (2-{4-[7-(dimethylamino)-5-methyl-[1,2,4]triazolo[1,5-a]pyrimidin-6-yl]phenyl}ethyl)(imino)methyl-λ^6-sulfanone]	3 to 300	–	–	–
Cc1nc2ncnn2c(N(C)C)c1Cc1ccc(S(=N)(=O)C2COC2)cc1 (stereo not shown) [Compound 62, [(4-{[7-(dimethylamino)-5-methyl-[1,2,4]triazolo[1,5-a]pyrimidin-6-yl]methyl}phenyl)(oxetan-3-yl)imino-λ^6-sulfanyl]one]	< 3	0.19	–	–
Cc1nc2ncnn2c(N2CC3CC(C3)C2)c1Cc1ccc(S(C)(=N)=O)cc1 (stereo not shown) [Compound 46, {4-[(7-{3-azabicyclo[3.1.1]heptan-3-yl}-5-methyl-[1,2,4]triazolo[1,5-a]pyrimidin-6-yl)methyl]phenyl}(imino)methyl-λ^6-sulfanone]	3 to 300	–	–	–
Cc1nc2ncnn2c(-n2cccn2)c1Cc1ccc(S(C)(=N)=O)cc1 (stereo not shown) [Compound 18, imino(methyl)(4-((5-methyl-7-(1H-pyrazol-1-yl)-[1,2,4]triazolo[1,5-a]pyrimidin-6-yl)methyl)phenyl)-λ^6-sulfanone]	3 to 300	6.99	–	–
Cc1nc2ncnn2c(N2CCC(F)(F)CC2)c1Cc1ccc(S(C)(=N)=O)cc1 (stereo not shown) [Compound 43, (4-{[7-(4,4-difluoropiperidin-1-yl)-5-methyl-[1,2,4]triazolo[1,5-a]pyrimidin-6-yl]methyl}phenyl)(imino)methyl-λ^6-sulfanone]	3 to 300	–	–	–
3-[(4-{[7-(dimethylamino)-5-methyl-[1,2,4]triazolo[1,5-a]pyrimidin-6-yl]methyl}phenyl)(imino)oxo-λ^6-sulfanyl]propaneitrile [Compound 61]	–	0.375	< 3	–
Cc1nc2ncnn2c(N2CC3CC2C3)c1Cc1ccc(S(C)(=N)=O)cc1 (stereo not shown) [Compound 45, {4-[(7-{2-azabicyclo[2.1.1]heptan-2-yl}-5-methyl-[1,2,4]triazolo[1,5-a]pyrimidin-6-yl)methyl]phenyl}(imino)methyl-λ^6-sulfanone]	3 to 300	9.83	–	–
